Values quoted from earlier work, collected in patent US11484539B2, “Compounds and their uses for alleviating menopause-associated symptoms” (Estetra SPRL, priority 2018, dated 2022).
Like-named read-outs stand apart in the source and are kept apart here.

Tested on: postmenopausal women
Conditions: cited from earlier work

C[C@]12CC[C@@H]3c4ccc(O)cc4CC[C@H]3[C@@H]1[C@@H](O)[C@@H](O)[C@@H]2O [E4, 1,3,5 (10)-estratrien-3,15alpha,16alpha,17beta-tetrol]
Endometrial thickness (2 mg estetrol group): stable | Mean number of hot flushes and sweating (2 mg estetrol per day): decrease | Endometrial thickness (10 mg estetrol group): increasing
